From patent publication US20250051321A1, “TRICYCLIC DERIVATIVE AND PREPARATION METHOD THEREFOR AND APPLICATION THEREOF” (SHANGHAI JEMINCARE PHARMACEUTICAL CO., LTD., priority 2021, published 2025)
Where two headings read alike, the source gives them in different places.

What was measured:
ATX = ATX (Homo sapiens (Human), UniProt Q13822); experiment: ATX enzyme inhibition assay (Amplex UltraRed/choline oxidase/HRP, 16:0 Lyso PC substrate); format: biochemical; conditions: assay buffer pH 8.5; read-out: IC50 (nM) pH 8.5
Outline: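 ATX (2× stock […]) preincubated with compound for 10 min at room temperature in assay buffer at pH 8.5 or 7.5. Reaction started with 16:0 Lyso PC, choline oxidase, HRP and Amplex UltraRed (2.5× working stock); fluorescence read kinetically (ex 550/em 590 nm) for 60 min.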

[1] = Pharmacokinetic test in mice; format: in vivo, ICR mice
Procedure: Dosage preparation: The dosing solution was prepared on the day of dosing. 2 mg of compound was weighed and dissolved in 5% DMSO+10% solutol+85% saline to prepare a solution for intravenous administration at a concentration of 0.2 mg/mL. 2 mg of compound was weighed and dissolved in 25% PEG 200+75% (0.5% MC) to obtain a solution for oral administration at a concentration of 1 mg/mL.
Six healthy male naïve ICR mice, weighing 25 to 30 g, were divided into two groups (intravenous and oral groups) with three in each group, and administered in a single dose. After 3 days of acclimatization, the mice were fasted overnight (10 to 12 hours) the night before the experiment, but had free access to water during the experiment, and the diet was resumed 4 hours after administration. After intravenous and oral administration, the timer was started. Blood was collected via the orbital venous plexus at the scheduled time points (IV&PO: 0.083, 0.25, 0.5, 1, 2, 4, 6, 8, and 24 hours). 40 μL of whole blood was collected at each point and added to a 1.5 mL EP tube containing sodium heparin. The collected whole blood was vibrated twice on a vortex mixer, mixed well, placed on wet ice, and centrifuged at 8000 rpm for 5 minutes at 4° C. within 1 hour. The supernatant plasma was stored in a −80° C. freezer until processing for analysis.

[2] = system: plasma LPA 18:1 and LPA 18:2; experiment: Human plasma ex vivo assay (LPA 18:1 / 18:2 by LC-MS/MS); format: biochemical; conditions: 37° C., 2 hours
Outline: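 Human plasma incubated 2 h at 37° C with compound (8 points, 1:3 dilution, top 10 μM, 0.1% DMSO), then quenched with 0.1% FA containing LPA 17:0 internal standard.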

[3] = LPA 18:1, read-out: Human plasma ex vivo assay IC50 (18:1 LPA)
[4] = LPA 18:2, read-out: Human plasma ex vivo assay IC50 (18:2 LPA)
[5] = male, ICR, mouse, plasma, 5 mg/kg, PO - 5 mpk

SMILES	IC50 (ATX)	AUCi ([1]; IV - 1 mpk)	C0 (IV) ([1]; IV - 1 mpk)	CL (mL/min/kg, IV) ([1]; IV - 1 mpk)	T1/2 ([1]; IV - 1 mpk)	AUCi ([1]; PO - 10 mpk)	Cmax (PO) ([1]; PO - 10 mpk)	T1/2 ([1]; PO - 10 mpk)	Tmax (hr, PO) ([1]; PO - 10 mpk)	Bioavailability (%) ([1]; PO - 10 mpk vs IV - 1 mpk)	IC50 [2, 3]	IC50 [2, 4]	AUC [1, 5]	Cmax [1, 5]	Tmax [1, 5]	half-life [1, 5]
CN(c1nc(-c2ccc(F)cc2)c(C#N)s1)c1c2c(nc3c(F)cc(N4CC5(CN(C(=O)[C@H]6CCOC6)C5)C4)cc13)[C@H](O)CC2 (single isomer, unassigned) [Example E5-a]	22.7 nM	1986 ng·h/mL	1882 ng/mL	8.54 mL/min/kg	57 min	44380 ng·h/mL	7763 ng/mL	140 min	30 min	223%	294 nM	306 nM				
CN(c1nc(-c2ccc(F)cc2)c(C#N)s1)c1c2c(nc3ncc(N4CC5(CN(C(=O)[C@@H]6CCOC6)C5)C4)cc13)CC2 [Example C17]	25.9 nM										318 nM	318 nM	16900 ng·h/mL	4280 ng/mL	30 min	128 min
